Source: publication PMC9981747, “A covalent BTK ternary complex compatible with targeted protein degradation” (Nature Communications, 2023)
Where “and” joins values, the source holds several entries; their conditions need not be identical. Equal entries are not always repeated. Where two headings read alike, the source gives them in different places.

Legend:
BTK = molecular target: T1, BTK (Homo sapiens, UniProt Q06187+Q13490); experiment: THP-1 dose-dependent degradation of endogenous BTK; type: cell-based; conditions: replicates
T1 construct: a THP-1 cell line which natively expresses both BTK and cIAP1; host or cells: THP-1
T1 sequence (Q06187 whole entry): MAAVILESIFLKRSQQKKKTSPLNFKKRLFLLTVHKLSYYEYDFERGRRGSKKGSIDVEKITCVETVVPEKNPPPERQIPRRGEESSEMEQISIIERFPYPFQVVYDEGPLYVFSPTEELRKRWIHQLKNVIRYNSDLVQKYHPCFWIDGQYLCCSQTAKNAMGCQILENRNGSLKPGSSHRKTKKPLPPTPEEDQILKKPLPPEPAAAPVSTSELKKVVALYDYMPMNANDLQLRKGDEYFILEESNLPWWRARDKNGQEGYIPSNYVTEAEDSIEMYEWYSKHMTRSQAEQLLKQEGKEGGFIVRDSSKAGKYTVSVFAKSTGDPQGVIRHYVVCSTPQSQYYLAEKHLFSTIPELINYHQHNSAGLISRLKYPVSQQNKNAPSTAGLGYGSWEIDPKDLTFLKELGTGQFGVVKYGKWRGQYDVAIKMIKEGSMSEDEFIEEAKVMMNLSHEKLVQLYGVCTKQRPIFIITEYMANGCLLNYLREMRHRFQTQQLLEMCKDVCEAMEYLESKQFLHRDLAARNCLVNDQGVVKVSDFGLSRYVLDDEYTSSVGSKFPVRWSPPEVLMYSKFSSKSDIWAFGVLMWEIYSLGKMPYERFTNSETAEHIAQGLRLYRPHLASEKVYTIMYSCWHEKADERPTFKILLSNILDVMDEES
T1 sequence (Q13490 whole entry): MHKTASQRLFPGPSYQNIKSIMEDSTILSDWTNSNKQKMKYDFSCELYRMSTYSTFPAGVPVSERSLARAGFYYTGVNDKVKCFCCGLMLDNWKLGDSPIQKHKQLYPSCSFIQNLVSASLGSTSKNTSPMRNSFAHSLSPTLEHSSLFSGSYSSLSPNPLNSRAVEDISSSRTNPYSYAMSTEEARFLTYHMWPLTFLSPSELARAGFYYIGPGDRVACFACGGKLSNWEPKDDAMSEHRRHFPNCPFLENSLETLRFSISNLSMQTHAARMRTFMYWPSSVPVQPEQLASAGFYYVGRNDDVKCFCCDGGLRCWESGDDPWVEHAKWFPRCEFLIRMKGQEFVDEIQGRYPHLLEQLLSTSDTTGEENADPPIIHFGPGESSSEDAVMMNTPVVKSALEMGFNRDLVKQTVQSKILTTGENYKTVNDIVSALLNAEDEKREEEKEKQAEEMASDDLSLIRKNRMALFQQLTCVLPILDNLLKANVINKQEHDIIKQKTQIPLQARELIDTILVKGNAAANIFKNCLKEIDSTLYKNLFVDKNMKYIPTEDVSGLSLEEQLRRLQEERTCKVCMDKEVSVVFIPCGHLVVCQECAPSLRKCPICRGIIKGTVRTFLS
Description: Human monocytic leukemia THP-1 Cells (ATCC TIB202) were grown in RPMI 1640 complete media (Gibco Cat# 11875-093), 10% Heat Inactivated FBS (Gibco Cat# 10438026), 2 mM L-Glutamine (Gibco Cat# 25030-081), 10 mM HEPES (Lonza Cat# 17-737E). Cells were cultured to approximately 0.8 × 10^6 cells/mL, centrifuged at 100 x g at 4 °C for 5 min, and resuspended in growth medium at 1.25 × 10^6 cells/mL, and 750 µL were plated in a 24-well format. Compounds were serially diluted in DMSO and individually added to pre-warmed complete media at a 4x concentration. Subsequently, 250 µL was added to their respective well, making it a 1x concentration. Endpoint viability was ≥95%. Each experiment was performed with n = 3 independent experiments. Three datapoints are missing due to blot.
Dose-dependent Degradation was analyzed using ImageJ (NIH, version 1.50i). Densiometric analysis was performed, normalized to DMSO signal, and analyzed using GraphPad Prism (Version 9.0.0 (121)). Non-linear fit one-phase decay analysis was used to obtain DC50 values. When we observed a hook effect, some points were excluded as part of the fit. In Supplementary Fig. 7B the complete curve was fit using GraphPad Prism non-linear regression bell-shaped curve where X is the concentration. However, using this method we were unable to obtain stable values for our DC50. SEM error was plotted for each point. When determining statistically significant differences, we used a two-sided student’s unpaired T-Test.

BTK^FL = molecular target: T2, BTK^FL (Homo sapiens, UniProt Q06187+Q13490); experiment: Expi293 time-dependent degradation of BTK^FL; type: cell-based; conditions: 5 µM; for BTK^FL (WT) blot signal normalized to time 0: replicates
T2 construct: we used a full-length BTK (aa1-659) with a C terminal Tobacco Etch Virus protease (TEV) site; expressed in transfected cells; host or cells: Expi293 (HEK293)
T2 sequence (Q06187 whole entry, the tested form may be a part): as the sequence (Q06187 whole entry) above
T2 sequence (Q13490 whole entry, the tested form may be a part): as the sequence (Q13490 whole entry) above
Description: Gibco Expi293 cell line Transfection Kit (Cat.# A14524) was cultured according to the manufacturers conditions. Cells were grown at 37 °C with 5% CO2 to 4 × 10^6 cells/mL using an orbital shaker set to 95 RPM. Next cells were split to 2 × 10^6 cells/mL and transfected with plasmid DNA at a 1 µg/mL final concentration in Optimem (Gibco 31985070) using the Expifectamine 293 transfection reagent according to manufacturer’s conditions. After approximately 18 h, enhancers 1 and 2 (provided with kit). Viability was typically about 85%. When cIAP1^FL was transfected, it was detected via α-cIAP1 antibody there was typically some autoubiquitination detected, and thus often appeared as a laddered or smeared band via western blotting. When BTK^FL variants were transfected, they were detected using anti-BTK antibody (D3H5).
For covalent modification detection assays, the compound was added to Expi293 cells after enhancer treatment. At each timepoint 10 mL of cells were harvested, rapidly cooled to 4 °C in an ice bath, and centrifuged at 100 x g at 4 °C for 5 min. The pellet was washed twice with ice-cold PBS, snap-frozen in liquid nitrogen, and stored at −80 °C. Each pellet was resuspended in 0.1 mL ice-cold RIPA Buffer supplemented with 40 µM BCNC (to outcompete any remaining BCCov), protease inhibitor, and benzonase, and sonicated with 10 brief blasts at power 20. Lysate was centrifuged at 15 K x g for 20 min at 4 °C and prepared for western blotting as detailed above. When samples were evaluated for covalent adduct formation, a purification step was required. Briefly, the ~1 mL of clarified lysate was added to 9 mL of FLAG binding buffer (25 mM HEPES 7.5, 300 mM NaCl, 10% glycerol). These samples were incubated with 250 µL of anti-FLAG M2 affinity resin (Millipore-Sigma Cat. # A2220) for 3 h at 4 °C with gentle nutation. Samples were washed via gravity column filtration and eluted with 0.2 mg/ml FLAG Peptide (DYKDDDDK, CPC Scientific Peptide Company). Each sample was concentrated to 0.1 mg/mL using an Amicon Ultra-15 Centrifugal filter with a 50 kDa MWCO (Millipore-Sigma Cat. # UFC905024). Details on mass spectrometry analysis are below.

[1] = molecular target: T3, BTK^KD and cIAP1^BUCR1 ternary complex (Homo sapiens, UniProt Q06187+Q13490); experiment: Biolayer interferometry (BLI) ternary complex formation; type: binding
T3 construct: BTK^KD (aa384-659) were expressed and purified as previously described; cIAP1^BUCR1 (aa260-618), and BTK^KD (aa384-659) were expressed and purified as previously described; biotin / BAP (only when BTK^KD~BCCov was the sensor ligand); made in house; host or cells: BTK^KD: SF9 insect cells; cIAP1^BUCR1: E. coli BL21-DE3
T3 sequence (Q06187 384-659): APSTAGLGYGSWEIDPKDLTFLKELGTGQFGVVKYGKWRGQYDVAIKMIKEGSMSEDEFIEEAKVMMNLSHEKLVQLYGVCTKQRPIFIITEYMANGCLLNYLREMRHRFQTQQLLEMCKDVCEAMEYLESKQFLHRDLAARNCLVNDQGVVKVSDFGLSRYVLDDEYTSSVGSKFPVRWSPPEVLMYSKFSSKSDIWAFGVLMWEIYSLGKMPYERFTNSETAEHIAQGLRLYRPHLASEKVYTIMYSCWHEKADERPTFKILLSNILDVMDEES
T3 sequence (Q13490 260-618): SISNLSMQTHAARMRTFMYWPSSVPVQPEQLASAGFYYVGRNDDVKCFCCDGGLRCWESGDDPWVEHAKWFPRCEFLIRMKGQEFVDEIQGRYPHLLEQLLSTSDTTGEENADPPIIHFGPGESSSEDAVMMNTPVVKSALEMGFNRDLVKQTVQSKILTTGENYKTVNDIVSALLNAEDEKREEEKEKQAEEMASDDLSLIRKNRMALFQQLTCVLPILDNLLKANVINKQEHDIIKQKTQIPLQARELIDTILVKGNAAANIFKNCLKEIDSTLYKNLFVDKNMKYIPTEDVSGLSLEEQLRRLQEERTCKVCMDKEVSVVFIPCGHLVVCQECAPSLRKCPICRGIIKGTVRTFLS
Description: We performed biolayer interferometry (BLI) with an OctetRED384 system (Data Acquisition Version 9.0.0.49) as described previously. […] Ligands were loaded onto streptavidin biosensors (ForteBio, 18-5019) for 120 s, washed in Octet buffer for 200 s, quenched with 50 μM d-biotin (Invitrogen) for 120 s, and washed in Octet buffer for 500 s. […] Excess compound was desalted using a Zeba Spin Desalting Column (Cat. #89882). The preformed binary complex was then dipped into varying concentrations of analyte diluted in Octet buffer for 300 s to determine kon, followed by a wash for 500 s to determine koff. Binding kinetics were calculated and plotted using BiaEvaluation Software (version 4.1.1). Cooperativity (α) was determined by calculating the ratio of binary Kd to ternary complex Kd.

SMILES | endogenous BTK blot signal normalized to DMSO (BTK; THP-1, 0.63 uM) | endogenous BTK blot signal normalized to DMSO (BTK; THP-1, 1.25 uM) | endogenous BTK blot signal normalized to DMSO (BTK; THP-1, 2.50 uM) | endogenous BTK blot signal normalized to DMSO (BTK; THP-1, 5.00 uM) | BTK^FL (WT) blot signal normalized to time 0 (BTK^FL; 0.5 h) | BTK^FL (WT) blot signal normalized to time 0 (BTK^FL; 1 h) | BTK^FL (WT) blot signal normalized to time 0 (BTK^FL; 2 h) | BTK^FL (WT) blot signal normalized to time 0 (BTK^FL; 3.5 h) | BTK^FL (WT) blot signal normalized to time 0 (BTK^FL; 5.5 h) | BTK^FL (WT) blot signal normalized to time 0 (BTK^FL; 7 h) | BTK^FL (WT) blot signal normalized to time 0 (BTK^FL; 17 h) | also measured
CNC(C)C(=O)NC(C(=O)N1CC(NC(=O)COCCN2CCN(CC=CC(=O)N3CCCC(n4nc(-c5ccc(Oc6ccccc6)cc5)c5c(N)ncnc54)C3)CC2)CC1C(=O)NC1CCCc2ccccc21)C1CCCCC1 (centres unmarked) [BCCov] | 0.18 and 0.24 and 0.08 | 0.13 and 0.23 and 0.0336 | 0.11 and 0.00 and 0.00241 | 0.056 and 0.00 (2×) | 0.46 and 0.65 and 0.56 | 0.26 and 0.42 and 0.40 | 0.14 and 0.25 and 0.20 | 0.0842 and 0.15 and 0.20 | 0.12 and 0.14 and 0.13 | 0.07 and 0.02 and 0.03 | 0.00 (2×) and 0.02 | endogenous BTK blot signal normalized to DMSO (BTK; THP-1, 0.00488 uM): 1.05 and 0.90 and 1.04; endogenous BTK blot signal normalized to DMSO (BTK; THP-1, 0.01 uM): 1.07 and 1.23 and 0.79; endogenous BTK blot signal normalized to DMSO (BTK; THP-1, 0.02 uM): 0.87 and 1.16 and 0.59; endogenous BTK blot signal normalized to DMSO (BTK; THP-1, 0.04 uM): 0.60 and 1.52 and 0.48; endogenous BTK blot signal normalized to DMSO (BTK; THP-1, 0.08 uM): 0.50 and 0.87 and 0.33; endogenous BTK blot signal normalized to DMSO (BTK; THP-1, 0.16 uM): 0.45 and 0.72 and 0.21; endogenous BTK blot signal normalized to DMSO (BTK; THP-1, 0.31 uM): 0.22 and 0.32 and 0.13; time at which degradation reaches a plateau (BTK^FL; BTK^FL with cIAP1^FL): ≤ 7 h; time at which degradation starts (BTK^FL; BTK^FL with cIAP1^FL): 30 min; Kd [1]: 0.0725 µM; cooperativity factor α = Kd binary/Kd ternary ([1]; upper limit): ≤ 0.2
CNC(C)C(=O)NC(C(=O)N1CC(NC(=O)COCCN2CCN(CCCC(=O)N3CCCC(n4nc(-c5ccc(Oc6ccccc6)cc5)c5c(N)ncnc54)C3)CC2)CC1C(=O)NC1CCCc2ccccc21)C1CCCCC1 (centres unmarked) [BCNC] | 0.00 | 0.00 | 0.00 | 0.00 | 0.49 and 0.76 and 0.55 | 0.28 and 0.42 and 0.35 | 0.16 and 0.20 and 0.21 | 0.06 (2×) and 0.10 | 0.056 and 0.10 and 0.08 | 0.00935 and 0.01 and 0.09 | 0.00 and 0.02 (2×) | endogenous BTK blot signal normalized to DMSO (BTK; THP-1, 0.00488 uM, listed as noncov): 0.97 and 1.25 and 1.03; endogenous BTK blot signal normalized to DMSO (BTK; THP-1, 0.01 uM, listed as noncov): 1.01 and 1.22 and 0.91; endogenous BTK blot signal normalized to DMSO (BTK; THP-1, 0.02 uM, listed as noncov): 1.09 and 1.18 and 0.86; endogenous BTK blot signal normalized to DMSO (BTK; THP-1, 0.04 uM, listed as noncov): 1.06 and 1.18 and 0.70; endogenous BTK blot signal normalized to DMSO (BTK; THP-1, 0.08 uM, listed as noncov): 0.36 and 0.68 and 0.42; endogenous BTK blot signal normalized to DMSO (BTK; THP-1, 0.16 uM, listed as noncov): 0.23 and 0.28 (2×); endogenous BTK blot signal normalized to DMSO (BTK; THP-1, 0.31 uM, listed as noncov): 0.17 and 0.09 and 0.13; Kd ([1]; [cIAP1^BUCR1-BCNC] binary complex binding BTK^KD, read-out: Kd, ternary complex): 0.0498 µM
